Source: ChEMBL document CHEMBL3991601, “The target landscape of clinical kinase drugs” (Science, 2017)
Calls of active or inactive are those of the source.

Experiments:
[1] = biological target: T1, Serine/threonine-protein kinase A-Raf (Homo sapiens, UniProt P10398)
T1 sequence (P10398 whole entry): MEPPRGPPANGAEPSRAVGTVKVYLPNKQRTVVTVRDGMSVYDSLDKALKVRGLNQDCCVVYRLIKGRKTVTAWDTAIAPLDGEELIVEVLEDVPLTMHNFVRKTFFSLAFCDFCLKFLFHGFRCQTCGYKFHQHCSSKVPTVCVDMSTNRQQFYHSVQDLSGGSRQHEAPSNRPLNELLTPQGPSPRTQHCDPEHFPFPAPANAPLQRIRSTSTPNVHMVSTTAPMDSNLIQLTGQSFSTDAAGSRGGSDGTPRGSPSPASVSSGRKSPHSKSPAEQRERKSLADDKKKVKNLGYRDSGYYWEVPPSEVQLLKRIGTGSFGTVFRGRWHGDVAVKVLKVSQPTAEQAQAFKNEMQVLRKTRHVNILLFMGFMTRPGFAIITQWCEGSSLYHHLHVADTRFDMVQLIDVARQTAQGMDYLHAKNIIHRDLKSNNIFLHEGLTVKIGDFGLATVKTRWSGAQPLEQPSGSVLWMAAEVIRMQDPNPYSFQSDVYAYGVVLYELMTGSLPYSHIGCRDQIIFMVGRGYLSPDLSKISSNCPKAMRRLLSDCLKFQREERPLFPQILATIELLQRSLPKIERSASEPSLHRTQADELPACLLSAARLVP

[2] = biological target: RAC-alpha serine/threonine-protein kinase (Homo sapiens, UniProt P31749)
[3] = biological target: Elongation factor Tu, mitochondrial (Homo sapiens, UniProt P49411)
[4] = biological target: Mitogen-activated protein kinase kinase kinase 1 (Homo sapiens, UniProt Q13233)
[5] = biological target: Proto-oncogene tyrosine-protein kinase receptor Ret (Homo sapiens, UniProt P07949)
[6] = biological target: Tyrosine-protein kinase FRK (Homo sapiens, UniProt P42685)
[7] = biological target: T2, Interleukin-1 receptor-associated kinase 4 (Homo sapiens, UniProt Q9NWZ3)
T2 sequence (Q9NWZ3 whole entry): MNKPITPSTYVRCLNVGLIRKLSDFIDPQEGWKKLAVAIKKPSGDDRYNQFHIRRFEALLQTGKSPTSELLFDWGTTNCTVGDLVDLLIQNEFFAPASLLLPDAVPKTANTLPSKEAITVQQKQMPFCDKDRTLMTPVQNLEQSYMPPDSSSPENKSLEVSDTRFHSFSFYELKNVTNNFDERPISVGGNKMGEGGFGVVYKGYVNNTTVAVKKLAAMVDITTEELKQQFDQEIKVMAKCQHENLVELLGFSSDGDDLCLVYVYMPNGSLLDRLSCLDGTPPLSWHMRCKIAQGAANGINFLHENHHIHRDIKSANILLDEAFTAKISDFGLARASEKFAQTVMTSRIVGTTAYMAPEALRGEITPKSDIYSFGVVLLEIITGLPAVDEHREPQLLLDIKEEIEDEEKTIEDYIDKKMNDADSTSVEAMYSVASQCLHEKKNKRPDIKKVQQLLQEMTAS

[8] = biological target: S-adenosylmethionine synthase isoform type-2 (Homo sapiens, UniProt P31153)
[9] = biological target: Casein kinase I isoform epsilon (Homo sapiens, UniProt P49674)
[10] = biological target: T3, Dual specificity mitogen-activated protein kinase kinase 3 (Homo sapiens, UniProt P46734)
T3 sequence (P46734 whole entry): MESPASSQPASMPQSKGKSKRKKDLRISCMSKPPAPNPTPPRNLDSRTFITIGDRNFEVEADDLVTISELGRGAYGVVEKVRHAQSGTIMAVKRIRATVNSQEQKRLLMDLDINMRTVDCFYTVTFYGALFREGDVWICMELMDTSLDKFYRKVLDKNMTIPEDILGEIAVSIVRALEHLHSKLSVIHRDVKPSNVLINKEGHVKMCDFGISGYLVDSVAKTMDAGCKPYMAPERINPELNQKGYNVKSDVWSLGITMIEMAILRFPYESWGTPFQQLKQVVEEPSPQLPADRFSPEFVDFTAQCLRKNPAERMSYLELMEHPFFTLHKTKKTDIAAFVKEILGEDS
Note: in the data inactive means no Kd found up to 30 µM.

Proto-oncogene tyrosine-protein kinase receptor Ret, sequence (P07949 whole entry): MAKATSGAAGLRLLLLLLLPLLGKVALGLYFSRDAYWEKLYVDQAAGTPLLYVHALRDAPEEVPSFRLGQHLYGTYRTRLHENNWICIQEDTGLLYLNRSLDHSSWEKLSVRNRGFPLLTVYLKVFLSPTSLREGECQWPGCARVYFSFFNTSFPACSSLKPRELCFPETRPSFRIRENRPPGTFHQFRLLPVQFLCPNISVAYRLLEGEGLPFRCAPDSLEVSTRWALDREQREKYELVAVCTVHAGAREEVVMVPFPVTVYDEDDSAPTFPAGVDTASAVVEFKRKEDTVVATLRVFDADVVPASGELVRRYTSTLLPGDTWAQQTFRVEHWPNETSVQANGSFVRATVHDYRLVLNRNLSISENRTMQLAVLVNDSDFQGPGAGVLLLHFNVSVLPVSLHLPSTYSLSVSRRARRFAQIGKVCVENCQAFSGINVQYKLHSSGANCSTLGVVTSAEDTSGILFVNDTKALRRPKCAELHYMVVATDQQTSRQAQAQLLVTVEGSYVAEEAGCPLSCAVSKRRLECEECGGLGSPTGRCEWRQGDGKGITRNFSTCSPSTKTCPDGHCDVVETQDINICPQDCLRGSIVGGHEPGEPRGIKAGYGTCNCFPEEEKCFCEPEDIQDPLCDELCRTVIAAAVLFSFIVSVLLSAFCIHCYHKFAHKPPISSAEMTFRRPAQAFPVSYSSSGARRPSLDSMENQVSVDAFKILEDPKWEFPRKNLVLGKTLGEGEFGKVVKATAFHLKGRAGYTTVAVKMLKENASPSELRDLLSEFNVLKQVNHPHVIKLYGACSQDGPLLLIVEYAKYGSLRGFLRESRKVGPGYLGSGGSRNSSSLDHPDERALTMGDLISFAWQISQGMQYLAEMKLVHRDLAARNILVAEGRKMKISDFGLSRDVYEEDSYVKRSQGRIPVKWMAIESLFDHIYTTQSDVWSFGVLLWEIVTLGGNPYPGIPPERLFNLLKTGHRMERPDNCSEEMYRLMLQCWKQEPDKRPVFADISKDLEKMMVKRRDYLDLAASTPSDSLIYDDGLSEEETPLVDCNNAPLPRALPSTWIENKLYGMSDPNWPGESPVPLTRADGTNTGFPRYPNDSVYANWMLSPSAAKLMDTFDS
S-adenosylmethionine synthase isoform type-2, sequence (P31153 whole entry, canonical isoform): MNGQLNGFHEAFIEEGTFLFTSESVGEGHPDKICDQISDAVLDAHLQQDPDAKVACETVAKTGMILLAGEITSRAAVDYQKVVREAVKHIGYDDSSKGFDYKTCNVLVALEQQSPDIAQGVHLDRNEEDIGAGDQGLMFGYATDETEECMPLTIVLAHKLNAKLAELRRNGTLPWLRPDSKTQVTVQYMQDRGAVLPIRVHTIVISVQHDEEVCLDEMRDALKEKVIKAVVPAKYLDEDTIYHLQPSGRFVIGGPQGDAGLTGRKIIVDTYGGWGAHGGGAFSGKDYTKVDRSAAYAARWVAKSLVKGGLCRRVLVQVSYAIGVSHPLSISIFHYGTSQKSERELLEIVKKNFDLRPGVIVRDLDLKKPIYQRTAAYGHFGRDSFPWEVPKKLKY
Mitogen-activated protein kinase kinase kinase 1, sequence (Q13233 whole entry): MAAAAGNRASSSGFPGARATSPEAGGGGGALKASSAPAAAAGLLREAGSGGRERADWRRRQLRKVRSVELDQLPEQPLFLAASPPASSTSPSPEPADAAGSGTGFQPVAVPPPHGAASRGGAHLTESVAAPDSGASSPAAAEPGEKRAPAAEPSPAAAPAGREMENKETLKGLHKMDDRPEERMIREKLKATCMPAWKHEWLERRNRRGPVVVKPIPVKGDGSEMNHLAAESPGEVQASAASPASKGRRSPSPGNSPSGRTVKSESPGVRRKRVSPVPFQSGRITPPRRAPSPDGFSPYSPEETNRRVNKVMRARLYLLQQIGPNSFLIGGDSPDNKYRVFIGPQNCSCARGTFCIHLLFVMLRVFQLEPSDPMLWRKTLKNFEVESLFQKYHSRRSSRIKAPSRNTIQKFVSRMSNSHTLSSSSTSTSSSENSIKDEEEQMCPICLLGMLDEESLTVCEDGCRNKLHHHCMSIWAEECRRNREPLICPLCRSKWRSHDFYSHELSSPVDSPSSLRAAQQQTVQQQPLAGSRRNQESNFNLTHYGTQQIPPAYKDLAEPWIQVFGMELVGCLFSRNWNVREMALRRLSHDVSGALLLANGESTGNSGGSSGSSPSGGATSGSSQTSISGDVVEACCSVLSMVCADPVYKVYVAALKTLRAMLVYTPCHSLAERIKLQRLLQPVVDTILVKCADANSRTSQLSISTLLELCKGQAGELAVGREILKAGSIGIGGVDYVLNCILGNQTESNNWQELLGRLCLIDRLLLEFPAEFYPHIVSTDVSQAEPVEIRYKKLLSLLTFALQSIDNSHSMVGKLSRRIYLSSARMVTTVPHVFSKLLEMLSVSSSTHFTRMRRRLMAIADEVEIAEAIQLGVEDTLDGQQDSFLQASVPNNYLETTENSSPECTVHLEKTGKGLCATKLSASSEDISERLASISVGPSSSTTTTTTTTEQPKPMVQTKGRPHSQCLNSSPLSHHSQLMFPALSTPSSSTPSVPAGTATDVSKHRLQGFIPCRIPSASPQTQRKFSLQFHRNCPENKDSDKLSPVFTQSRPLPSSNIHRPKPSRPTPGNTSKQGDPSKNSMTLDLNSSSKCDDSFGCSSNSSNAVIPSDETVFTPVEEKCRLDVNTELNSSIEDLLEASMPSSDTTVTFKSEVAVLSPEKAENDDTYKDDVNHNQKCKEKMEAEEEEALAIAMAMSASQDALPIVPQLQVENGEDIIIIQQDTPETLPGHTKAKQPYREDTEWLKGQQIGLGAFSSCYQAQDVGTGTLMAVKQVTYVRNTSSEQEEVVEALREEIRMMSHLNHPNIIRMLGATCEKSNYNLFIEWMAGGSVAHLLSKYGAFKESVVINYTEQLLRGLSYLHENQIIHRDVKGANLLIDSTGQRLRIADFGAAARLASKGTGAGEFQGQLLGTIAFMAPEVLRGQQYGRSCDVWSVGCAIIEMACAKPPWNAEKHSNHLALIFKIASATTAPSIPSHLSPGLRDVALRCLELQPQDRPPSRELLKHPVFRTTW
Tyrosine-protein kinase FRK, sequence (P42685 whole entry): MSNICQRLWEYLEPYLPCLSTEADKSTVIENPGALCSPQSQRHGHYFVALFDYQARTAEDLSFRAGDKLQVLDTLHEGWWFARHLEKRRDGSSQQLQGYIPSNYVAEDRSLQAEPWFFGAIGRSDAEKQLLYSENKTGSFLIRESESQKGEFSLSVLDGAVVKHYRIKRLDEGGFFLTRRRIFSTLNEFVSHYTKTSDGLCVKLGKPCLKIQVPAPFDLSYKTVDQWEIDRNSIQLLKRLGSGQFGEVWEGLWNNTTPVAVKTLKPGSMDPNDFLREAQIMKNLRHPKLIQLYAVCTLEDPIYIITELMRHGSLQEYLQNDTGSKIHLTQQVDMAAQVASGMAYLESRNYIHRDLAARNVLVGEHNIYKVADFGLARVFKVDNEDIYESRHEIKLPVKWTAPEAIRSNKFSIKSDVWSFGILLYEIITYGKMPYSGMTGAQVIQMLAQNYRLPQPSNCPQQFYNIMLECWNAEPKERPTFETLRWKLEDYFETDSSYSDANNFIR
RAC-alpha serine/threonine-protein kinase, sequence (P31749 whole entry): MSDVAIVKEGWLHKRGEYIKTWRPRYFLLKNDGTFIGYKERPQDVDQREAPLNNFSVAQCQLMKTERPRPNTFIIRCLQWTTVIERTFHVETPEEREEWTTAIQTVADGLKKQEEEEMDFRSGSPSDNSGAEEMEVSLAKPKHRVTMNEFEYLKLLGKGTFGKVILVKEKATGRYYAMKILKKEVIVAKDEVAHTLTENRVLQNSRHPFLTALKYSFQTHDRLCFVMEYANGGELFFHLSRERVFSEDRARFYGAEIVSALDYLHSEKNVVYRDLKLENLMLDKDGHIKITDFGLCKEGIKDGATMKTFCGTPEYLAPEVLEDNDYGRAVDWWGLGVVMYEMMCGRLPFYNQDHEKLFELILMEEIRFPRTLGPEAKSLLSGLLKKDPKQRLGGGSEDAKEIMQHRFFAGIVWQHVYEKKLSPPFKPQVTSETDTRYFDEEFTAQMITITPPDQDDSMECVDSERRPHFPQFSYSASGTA
Casein kinase I isoform epsilon, sequence (P49674 whole entry, canonical isoform): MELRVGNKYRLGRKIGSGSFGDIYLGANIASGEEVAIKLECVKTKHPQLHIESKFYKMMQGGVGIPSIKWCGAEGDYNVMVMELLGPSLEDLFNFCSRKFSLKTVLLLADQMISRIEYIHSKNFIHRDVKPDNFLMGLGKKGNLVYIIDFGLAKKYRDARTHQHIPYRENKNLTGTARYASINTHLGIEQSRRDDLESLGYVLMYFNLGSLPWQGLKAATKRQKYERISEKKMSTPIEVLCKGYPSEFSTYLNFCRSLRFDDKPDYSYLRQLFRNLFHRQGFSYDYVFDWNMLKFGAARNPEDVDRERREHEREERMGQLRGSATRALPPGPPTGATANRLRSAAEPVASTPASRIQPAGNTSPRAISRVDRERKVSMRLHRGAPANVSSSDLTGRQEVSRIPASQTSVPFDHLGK

| SMILES | Kd [1] | Kd [2] | Kd [3] | Kd [4] | Kd [5] | Kd [6] | Kd [7] | Kd [8] | Kd [9] | Kd [10] |
| --- | --- | --- | --- | --- | --- | --- | --- | --- | --- | --- |
| CO[C@H]1C[C@@H]2CC[C@@H](C)[C@@](O)(O2)C(=O)C(=O)N2CCCC[C@H]2C(=O)O[C@H]([C@H](C)C[C@@H]2CC[C@@H](OC(=O)C(C)(CO)CO)[C@H](OC)C2)CC(=O)[C@H](C)/C=C(\C)[C@@H](O)[C@@H](OC)C(=O)[C@H](C)C[C@H](C)/C=C/C=C/C=C/1C [TEMSIROLIMUS] | > 30 µM (inactive) | > 30 µM (inactive) | > 30 µM (inactive) | > 30 µM (inactive) | > 30 µM (inactive) | > 30 µM (inactive) | > 30 µM (inactive) | > 30 µM (inactive) | > 30 µM (inactive) | > 30 µM (inactive) |
| O=C(Cc1ccc(-c2ccc(OCCN3CCOCC3)cc2)cn1)NCc1ccccc1 [TIRBANIBULIN] | > 30 µM (inactive) | > 30 µM (inactive) | > 30 µM (inactive) | > 30 µM (inactive) | > 30 µM (inactive) | > 30 µM (inactive) | > 30 µM (inactive) | > 30 µM (inactive) | > 30 µM (inactive) | > 30 µM (inactive) |
| O=C1NC(=O)[C@@H](c2cn3c4c(cccc24)CCC3)[C@@H]1c1c[nH]c2ccccc12 [TIVANTINIB] | > 30 µM (inactive) | > 30 µM (inactive) | > 30 µM (inactive) | > 30 µM (inactive) | > 30 µM (inactive) | > 30 µM (inactive) | > 30 µM (inactive) | > 30 µM (inactive) | > 30 µM (inactive) | > 30 µM (inactive) |
| Cc1cc(Nc2ncnc3ccc(NC4=NC(C)(C)CO4)cc23)ccc1Oc1ccn2ncnc2c1 [TUCATINIB] | > 30 µM (inactive) | > 30 µM (inactive) | > 30 µM (inactive) | > 30 µM (inactive) | > 30 µM (inactive) | > 30 µM (inactive) | > 30 µM (inactive) | > 30 µM (inactive) | > 30 µM (inactive) | > 30 µM (inactive) |
| C[C@@H](N)c1ccc(C(=O)Nc2ccnc3[nH]ccc23)cc1 [Y-39983] | > 30 µM (inactive) | > 30 µM (inactive) | > 30 µM (inactive) | > 30 µM (inactive) | > 30 µM (inactive) | > 30 µM (inactive) | > 30 µM (inactive) | > 30 µM (inactive) | > 30 µM (inactive) | > 30 µM (inactive) |

Results, then the compound that gave them:

| Kd [1] | Kd [2] | Kd [3] | Kd [4] | Kd [5] | Kd [6] | Kd [7] | Kd [8] | Kd [9] | Kd [10] | SMILES |
| --- | --- | --- | --- | --- | --- | --- | --- | --- | --- | --- |
| > 30 µM (inactive) | > 30 µM (inactive) | > 30 µM (inactive) | 1.74 µM (active) | 0.064 µM (active) | > 30 µM (inactive) | 1.17 µM (active) | > 30 µM (inactive) | 1.02 µM | > 30 µM (inactive) | COc1cc2c(Nc3ccc(Cl)c(Cl)c3F)ncnc2cc1OC[C@@H]1C[C@@H]2CN(C)C[C@@H]2C1 [TESEVATINIB] |
| > 30 µM (inactive) | > 30 µM (inactive) | > 30 µM (inactive) | 2.09 µM (active) | > 30 µM (inactive) | 0.172 µM (active) | > 30 µM (inactive) | > 30 µM (inactive) | > 30 µM (inactive) | > 30 µM (inactive) | C[C@@H](NC(=O)c1ncnc(N)c1Cl)c1ncc(C(=O)Nc2cc(C(F)(F)F)c(Cl)cn2)s1 [TOVORAFENIB] |
| > 30 µM (inactive) | > 30 µM (inactive) | > 30 µM (inactive) | > 30 µM (inactive) | 0.009 µM (active) | > 30 µM (inactive) | > 30 µM (inactive) | > 30 µM (inactive) | > 30 µM (inactive) | > 30 µM (inactive) | CC(C)c1cc(CNc2nc(Nc3cc(C4CC4)[nH]n3)cc(N3CCN(C)CC3)n2)on1 [XL-228] |
| > 30 µM (inactive) | > 30 µM (inactive) | > 30 µM (inactive) | > 30 µM (inactive) | 21.9 µM | > 30 µM (inactive) | > 30 µM (inactive) | > 30 µM (inactive) | > 30 µM (inactive) | > 30 µM (inactive) | CN1C/C=C/CCOc2cccc(c2)-c2ccnc(n2)Nc2cccc(c2)C1 [ZOTIRACICLIB] |
